This note sets out measurements from patent publication US20260306460A1, “COMPOSITION FOR REMOVING AND INHIBITING SENESCENT CELLS, AND USES THEREOF” (LIFECEUTIX CO., LTD., priority 2023, published 2026).

One data set concerns senescent human cells. Put plainly: Viability of doxorubicin-induced senescent human cells (CellTiter-Glo), Example 11. In kind it is cell-based. A general note: Cellular ATP, detected with luciferase, serves as a proxy for viable cell number.
Data set [1] deals with naturally aged C57BL6J mice. Put plainly: Lipofuscin staining in muscle of naturally aged mice, Example 21-4. In kind it is in vivo, mouse. Particulars: untreated aged = 100, LX-5701 360 mg/kg po, LX-2101 20 mg/kg ip, LX-2102 10 mg/kg ip, daily 21 days. Here is the method: 22-month-old female C57BL6J mice (KRIBB Laboratory Animal Resource Center) were acclimated to the experimental environment for one week, after which the aged mice were randomly assigned to experimental and control groups. Eight-week-old, non-aged mice served as controls. LX-403 was mixed in a 10% ethanol solution of PEG400 and administered orally at a concentration of 25 mg/kg daily for 21 days, or administered to the skin, joints, or eyes at a concentration of 1 μM. LX-1801 was mixed in distilled water with 4% DMSO, 30% PEG300, and 5% Tween80 and administered to the skin, joints, or eyes at a concentration of 0.4 μM daily for 21 days. LX-2001 was mixed in PBS and administered to the skin, joints, or eyes at a concentration of […] daily for 21 days. LX-2002 was mixed in distilled water with 4% DMSO, 30% PEG300, and 5% Tween80 and administered to the skin, joints, or eyes at a concentration of 2 μM daily for 21 days. […] LX-2005 was mixed in distilled water with 4% DMSO, 30% PEG300, and 5% Tween80 and administered to the skin, joints, or eyes at a concentration of 90 μM daily for 21 days. LX-2007 was mixed in distilled water with 4% DMSO, 30% PEG300, and 5% Tween80 and administered to the skin, joints, or eyes at a concentration of 90 μM daily for 21 days. […] LX-3002 was mixed in distilled water with 4% DMSO, 30% PEG300, and 5% Tween80 and administered orally at a concentration of 10 mg/kg daily for 21 days. […] LX-5411 was mixed in 5% PBS and administered orally at a concentration of 10 mg/kg daily for 21 days or administered to the skin, joints, or eyes at a concentration of 3 μM. LX-5701 was mixed in PBS and administered orally at a concentration of 360 mg/kg daily for 21 days. LX-6807 was mixed in saline and administered intraperitoneally at a concentration of 1 mg/kg daily for 21 days. LX-2101 or LX-2102 was mixed in PBS solution with 5% DMSO and administered intraperitoneally at a concentration of 20 mg/kg or 10 mg/kg, respectively, daily for 21 days. […]
Mice were sacrificed and evaluated using the same method as in Example 7-4 of WO2023-085787 A1. […]

In data set [2] the test system is naturally aged C57BL6J mice. Kind of data set: SA-β-gal staining in organs of naturally aged mice, Example 21-3, Table 19. In kind it is in vivo, mouse. Conditions: staining area, untreated aged = 100. The procedure:
22-month-old female C57BL6J mice (KRIBB Laboratory Animal Resource Center) were acclimated to the experimental environment for one week, after which the aged mice were randomly assigned to experimental and control groups. Eight-week-old, non-aged mice served as controls. LX-403 was mixed in a 10% ethanol solution of PEG400 and administered orally at a concentration of 25 mg/kg daily for 21 days, or administered to the skin, joints, or eyes at a concentration of 1 μM. LX-1801 was mixed in distilled water with 4% DMSO, 30% PEG300, and 5% Tween80 and administered to the skin, joints, or eyes at a concentration of 0.4 μM daily for 21 days. LX-2001 was mixed in PBS and administered to the skin, joints, or eyes at a concentration of […] daily for 21 days. LX-2002 was mixed in distilled water with 4% DMSO, 30% PEG300, and 5% Tween80 and administered to the skin, joints, or eyes at a concentration of 2 μM daily for 21 days. […] LX-2005 was mixed in distilled water with 4% DMSO, 30% PEG300, and 5% Tween80 and administered to the skin, joints, or eyes at a concentration of 90 μM daily for 21 days. LX-2007 was mixed in distilled water with 4% DMSO, 30% PEG300, and 5% Tween80 and administered to the skin, joints, or eyes at a concentration of 90 μM daily for 21 days. […] LX-3002 was mixed in distilled water with 4% DMSO, 30% PEG300, and 5% Tween80 and administered orally at a concentration of 10 mg/kg daily for 21 days. […] LX-5411 was mixed in 5% PBS and administered orally at a concentration of 10 mg/kg daily for 21 days or administered to the skin, joints, or eyes at a concentration of 3 μM. LX-5701 was mixed in PBS and administered orally at a concentration of 360 mg/kg daily for 21 days. LX-6807 was mixed in saline and administered intraperitoneally at a concentration of 1 mg/kg daily for 21 days. LX-2101 or LX-2102 was mixed in PBS solution with 5% DMSO and administered intraperitoneally at a concentration of 20 mg/kg or 10 mg/kg, respectively, daily for 21 days. The control group received only the solution in the same volume. After the end of drug administration, the methods described in each example below were performed.
Mice were sacrificed, tissue sections were prepared from each organ, and stained for the senescence-associated marker (SA-β-gal) using the same method as in Example 7-3 of WO2023-085787 A1.

Data set [3] has as its system doxorubicin-induced aged C57BL6J mice. Kind of data set: Bone marrow function (CAFC assay) in doxorubicin-aged mice, Example 22-12, Table 41. In kind it is in vivo, mouse. Conditions: bone marrow of doxorubicin-induced aged mice, 5 weeks of culture; untreated 1.8 (±0.1). Here is the method:
Eight-week-old male C57BL6J mice (KRIBB Laboratory Animal Resource Center) were acclimated to the experimental environment for one week. Afterwards, the anticancer agent doxorubicin was administered intraperitoneally at a concentration of 10 mg/kg, inducing aging for more than 10 days. The aging-induced mice were randomly assigned to experimental and control groups. LX-403 was mixed with a 10% ethanol solution of PEG400 and administered orally at a concentration of 25 mg/kg or intradermally at a concentration of 1 μM for 21 days. LX-1801 was mixed in distilled water with 4% DMSO, 30% PEG300, and 5% Tween80 and administered intradermally at a concentration of 0.4 μM daily for 21 days. LX-2001 was mixed in PBS and administered intradermally at a concentration of 2 μM daily for 21 days. LX-2002 was mixed in distilled water with 4% DMSO, 30% PEG300, and 5% Tween80 and administered intradermally at a concentration of 2 μM daily for 21 days. […] LX-2005 was mixed in distilled water with 4% DMSO, 30% PEG300, and 5% Tween80 and administered intradermally at a concentration of 90 μM daily for 21 days. LX-2007 was mixed in distilled water with 4% DMSO, 30% PEG300, and 5% Tween80 and administered intradermally at a concentration of 90 μM daily for 21 days. […] LX-3002 was mixed in distilled water with 4% DMSO, 30% PEG300, and 5% Tween80 and administered orally at a concentration of 10 mg/kg daily for 21 days. […] LX-5411 was mixed in 5% phosphate-buffered saline (PBS) and administered orally at a concentration of 10 mg/kg daily for 21 days or intradermally at a concentration of 3 μM. LX-5701 was mixed in PBS and administered orally at a concentration of 360 mg/kg daily for 21 days. LX-6807 was mixed in saline and administered intraperitoneally at a concentration of 1 mg/kg daily for 21 days. The control group received only the solution in the same volume. After the end of drug administration, the methods described in each example below were performed.
Damage to the immune system, including the bone marrow, after chemotherapy is known to induce inflammatory responses and contribute to drug resistance and adverse effects. To analyze the function of bone marrow hematopoietic cells in mice induced to age by the anticancer agent, a cobblestone-area-forming-cell (CAFC) assay was performed. Specifically, bone marrow cells (BMCs) were collected from the femurs and tibias of mice, and BM-MNCs (mono-nuclear cells) were cultured in MethoCult™ GF M3434 methylcellulose medium (Stem Cell™ Technologies Inc, Canada). FBMD-1 stromal cells were seeded in each well of a 96-well plate to prepare a support cell stromal layer. […] After 5 weeks of culture, CAFCs were counted using an optical microscope.

A further data set relates to senescent A549 cells. Kind of data set: Viability of senescent A549 cells (CellTiter-Glo), Example 18, Table 15. Conditions: Homo sapiens, A549, read-out: Survival (%).

Protocol for senescent A549 cells: Senescence-induced cancer cells treated with doxorubicin were treated with the test compound at designated concentrations, and cell viability was measured using the CellTiter-Glo Luminescent Cell Viability Assay (Promega).
Protocol for senescent human cells: Cells in which senescence was induced by treatment with doxorubicin were treated with the test compound at designated concentrations and measured using the CellTiter-Glo Luminescent Cell Viability Assay (Promega).
After 3 days, cell viability was measured using CellTiter-Glo Luminescent Cell Viability Assay (Promega) or light microscopy.

Regarding `COC(=O)c1ccc([C@H]2c3[nH]c4ccccc4c3C[C@H](C(=O)OC)N2C(=O)CCl)cc1` [LX-405], in the data set on senescent human cells (senescent foreskin cells, 30 μM, 3 days), the “induced death of cells” value is listed as “induced the death of most cells”.
Consider `S=C(N/N=C1\CCCc2cccnc21)N1CCN(c2ccccn2)CC1` [LX-801], for which the Survival in the data set on senescent human cells (1.1 μM, 0 μM = 100) came out at 50.5%; in the data set with senescent human cells (10 μM, 0 μM = 100) it was 28.2%; in the data set on senescent human cells ([…], 0 μM = 100), 48.9%.
In the case of `C[C@H]1[C@H](C)CC[C@]2(C(=O)O)CC[C@]3(C)C(=CC[C@@H]4[C@@]5(C)CC[C@H](O)C(C)(C)[C@@H]5CC[C@]43C)[C@H]12` [LX-2001, Ursolic acid], in the data set with senescent human cells (Homo sapiens, 3.3 μM, 0 μM = 100, read-out: Survival), the viability at […] turned out to be 0.8%.
With `CC1(C)CC[C@]2(NC(=O)C(C)(F)F)CC[C@]3(C)[C@H](C(=O)C=C4[C@@]5(C)C=C(C#N)C(=O)C(C)(C)[C@@H]5CC[C@]43C)[C@@H]2C1` [LX-2101, Omaveloxolone], in data set [1], the “Lipofuscin (staining area)” value is reported as 64 (±11.6) %. For the same molecule, in data set [2], the “SA-β-gal (%), Kidney” value is listed as 51 (±12.5) %; the “SA-β-gal (%), Liver” value is 71 (±5.5) %; the “SA-β-gal (%), Lung” value is reported as 72 (±8.8) %; the “SA-β-gal (%), Skin” value was 75 (±11.8) %. Also, in data set [2], the “SA-β-gal (%), eWAT” value is 32 (±16.2) %.
In the case of `COC(=O)[C@]12CCC(C)(C)C[C@H]1[C@H]1C(=O)C=C3[C@@]4(C)C=C(C#N)C(=O)C(C)(C)[C@@H]4CC[C@@]3(C)[C@]1(C)CC2` [LX-2102, Bardoxolone methyl], in data set [1], the “Lipofuscin (staining area)” value is 71 (±8.1) %. Also, in data set [2], the “SA-β-gal (%), Kidney” value is 62 (±8.6) %; the “SA-β-gal (%), Liver” value was 68 (±6.8) %; the “SA-β-gal (%), Lung” value was 59 (±14.6) %; the “SA-β-gal (%), Skin” value is 77 (±5.4) %. Besides, in data set [2], the “SA-β-gal (%), eWAT” value is reported as 49 (±9.7) %.
Consider `CCCC\C=C/C=C/C=C\CCCCCCCC(=O)O` [LX-2707, Punicic acid], for which the “CAFCs/10^5 BMCs” value in data set [3] is listed as 2.7 (±0.2) CAFCs/10^5 BMCs.
Turning to `COC(=O)[C@H]1Cc2c([nH]c3ccccc23)[C@H](c2ccc(S(C)(=O)=O)cc2)N1C(=O)CCl` [LX-5401, methyl (1S,3R)-2-(2-chloroacetyl)-1-(4-(methylsulfonyl)phenyl)-2,3,4,9-tetrahydro-1H-pyrido[3,4-b]indole-3-carboxylate], in the data set on senescent A549 cells, the viability at 1.1 µM is 92.7%, the viability at 10 µM came out at 43.8% and the viability at 30 µM came out at 1.9%.
In the case of `C#CC(=O)N1[C@@H](CCCC)Cc2cc(OC)ccc2[C@@H]1c1ccc(NC23CC4CC(CC(C4)C2)C3)cc1` [LX-5411], in the data set on senescent A549 cells, the viability at 1.1 µM came to 75.4% and the viability at 10 µM is 5.3%.
For the molecule `O=C1C2CCN(CC2)C1CNC(=O)C(F)(F)F` (stereo not shown) [LX-5701], the “Lipofuscin (staining area)” value in data set [1] is on record as 69 (±10.8) %. In data set [3], the “CAFCs/10^5 BMCs” value was 3.3 (±0.2) CAFCs/10^5 BMCs. Further, in the data set with senescent A549 cells, the viability at 1.1 µM was 82.3%, the viability at 10 µM was 43.8% and the viability at 30 µM was found to be 16.2%. In addition, in data set [2], the “SA-β-gal (%), Kidney” value is given as 77 (±8.1) %; the “SA-β-gal (%), Liver” value is listed as 65 (±4.8) %; the “SA-β-gal (%), Lung” value is listed as 62 (±9.6) %; the “SA-β-gal (%), Skin” value is on record as 76 (±6.9) %. Also, the “SA-β-gal (%), eWAT” value in data set [2] is recorded as 48 (±3.9) %.
In the case of `Cc1cccc([C@H](C)c2cnc[nH]2)c1C` [LX-6807, Dexmedetomidine], the “CAFCs/10^5 BMCs” value in data set [3] was 3.5 (±0.2) CAFCs/10^5 BMCs. Further, in the data set on senescent A549 cells, the viability at 1.1 µM was found to be 94.1%, the viability at 10 µM turned out to be 76.5% and the viability at 30 µM came to 6.6%.
As to Tocofersolan [LX-3001], the “CAFCs/10^5 BMCs” value in data set [3] was 2.1 (±0.2) CAFCs/10^5 BMCs. Besides, the Survival in the data set with senescent human cells (1.1 μM, 0 μM = 100) is 74.8%; with senescent human cells ([…], 0 μM = 100), 1.1%.
